Measured values published in ChEMBL document CHEMBL4130416, “Glycine-replaced derivatives of [Pro3,DLeu9]TL, a temporin L analogue: Evaluation of antimicrobial, cytotoxic and hemolytic activities” (Eur J Med Chem, 2017).
In brackets after ≈: the same amount, converted by molar mass. Where a SMILES comes first, the peptide text is derived from it. [ ]: non-standard residue; d: D form. Aic = NC1(C(=O)O)Cc2ccccc2C1

Key:
Acinetobacter baumannii = assay: Antimicrobial activity against Acinetobacter baumannii ATCC 19606 after 18 to 20 hrs by microbroth dilution method; assay type: functional; conditions: ATCC 19606 = CIP 70.34 = JCM 6841
Candida albicans = assay: Antimicrobial activity against Candida albicans ATCC 10231 after 18 to 20 hrs by microbroth dilution method; assay type: functional
HaCaT [1] = assay: Cytotoxicity against human HaCaT cells at 50 uM after 24 hrs by MTT assay relative to control; assay type: cell-based
Staphylococcus aureus = assay: Antimicrobial activity against Staphylococcus aureus Cowan I after 18 to 20 hrs by microbroth dilution method; assay type: functional
Escherichia coli = assay: Antimicrobial activity against Escherichia coli D21 after 18 to 20 hrs by microbroth dilution method; assay type: functional
HaCaT [2] = assay: Cytotoxicity against human HaCaT cells at 25 uM after 24 hrs by MTT assay relative to control; assay type: cell-based
HaCaT [3] = assay: Cytotoxicity against human HaCaT cells at 12.5 uM after 24 hrs by MTT assay relative to control; assay type: cell-based
Pichia kudriavzevii = assay: Antimicrobial activity against Candida krusei ATCC 6258 after 18 to 20 hrs by microbroth dilution method; assay type: functional
[4] = system: Staphylococcus epidermidis; assay: Antimicrobial activity against Staphylococcus epidermidis ATCC 12228 after 18 to 20 hrs by microbroth dilution method; assay type: functional
Pseudomonas syringae = assay: Antimicrobial activity against Pseudomonas syringae pv tabaci NCPPB 1918 after 18 to 20 hrs by microbroth dilution method; assay type: functional, Pseudomonas amygdali pv. tabaci
HaCaT [5] = assay: Cytotoxicity against human HaCaT cells at 1.56 to 6.25 uM after 24 hrs by MTT assay; assay type: cell-based
Pseudomonas aeruginosa = assay: Antimicrobial activity against Pseudomonas aeruginosa ATCC 27853 after 18 to 20 hrs by microbroth dilution method; assay type: functional
Priestia megaterium = assay: Antimicrobial activity against Bacillus megaterium Bm11 after 18 to 20 hrs by microbroth dilution method; assay type: functional

SMILES	MIC (Acinetobacter baumannii) [µM]	MIC (Candida albicans) [µM]	Activity (HaCaT [1]) [%]	MIC (Staphylococcus aureus) [µM]	MIC (Escherichia coli) [µM]	Activity (HaCaT [2]) [%]	Activity (HaCaT [3]) [%]	MIC (Pichia kudriavzevii) [µM]	MIC [4] [µM]	MIC (Pseudomonas syringae) [µM]	Activity (HaCaT [5])	MIC (Pseudomonas aeruginosa) [µM]	MIC (Priestia megaterium) [µM]
CC[C@H](C)[C@H](NC(=O)[C@H](CCCNC(=N)N)NC(=O)[C@@H]1C[C@@H](O)CN1C(=O)[C@@H](CC(C)C)NC(=O)[C@H](Cc1ccccc1)NC(=O)[C@H](CCCCN)NC(=O)[C@H](CO)NC(=O)[C@H](Cc1ccccc1)NC(=O)[C@H](Cc1c[nH]c2ccccc12)NC(=O)[C@@H]1CCCN1C(=O)[C@@H](NC(=O)[C@@H](N)Cc1ccccc1)C(C)C)C(=O)N[C@@H](CC(C)C)C(N)=O	6.25 (≈ 10.4 µg/mL)	3.12 (≈ 5.2 µg/mL)	98.81	6.25 (≈ 10.4 µg/mL)	25 (≈ 41.6 µg/mL)	84.72	2.76	1.56 (≈ 2.6 µg/mL)	6.25 (≈ 10.4 µg/mL)	12.5 (≈ 20.8 µg/mL)	Non-Toxic	50 (≈ 83.3 µg/mL)	1.56 (≈ 2.6 µg/mL)
CC[C@H](C)[C@H](NC(=O)[C@H](CCCNC(=N)N)NC(=O)[C@H]1C[C@@H](O)CN1C(=O)[C@@H](CC(C)C)NC(=O)[C@H](Cc1ccccc1)NC(=O)[C@H](CCCCN)NC(=O)[C@H](CO)NC(=O)[C@H](Cc1ccccc1)NC(=O)[C@H](Cc1c[nH]c2ccccc12)NC(=O)[C@@H]1CCCN1C(=O)[C@@H](NC(=O)[C@@H](N)Cc1ccccc1)C(C)C)C(=O)N[C@@H](CC(C)C)C(N)=O	25 (≈ 41.6 µg/mL)	3.12 (≈ 5.2 µg/mL)	0	> 50	25 (≈ 41.6 µg/mL)	0	0	3.12 (≈ 5.2 µg/mL)	50 (≈ 83.3 µg/mL)	> 50	Non-Toxic	> 50	3.12 (≈ 5.2 µg/mL)
CC[C@H](C)[C@H](NC(=O)[C@H](CCCNC(=N)N)NC(=O)[C@@H]1CCCN1C(=O)[C@@H](CC(C)C)NC(=O)[C@H](Cc1ccccc1)NC(=O)[C@H](CCCCN)NC(=O)[C@H](CO)NC(=O)[C@H](Cc1ccccc1)NC(=O)[C@H](Cc1c[nH]c2ccccc12)NC(=O)[C@@H]1CCCN1C(=O)[C@@H](NC(=O)[C@@H](N)Cc1ccccc1)C(C)C)C(=O)N[C@@H](CC(C)C)C(N)=O (H-FVPWFSKF[dL]PRIL-NH2)	6.25 (≈ 10.3 µg/mL)	1.56 (≈ 2.57 µg/mL)	96.61	3.12 (≈ 5.15 µg/mL)	25 (≈ 41.2 µg/mL)	77.06	16.15	1.56 (≈ 2.57 µg/mL)	3.12 (≈ 5.15 µg/mL)	12.5 (≈ 20.6 µg/mL)	Non-Toxic	50 (≈ 82.5 µg/mL)	1.56 (≈ 2.57 µg/mL)
CC[C@H](C)[C@H](NC(=O)[C@H](CCCNC(=N)N)NC(=O)C1(NC(=O)[C@@H](CC(C)C)NC(=O)[C@H](Cc2ccccc2)NC(=O)[C@H](CCCCN)NC(=O)[C@H](CO)NC(=O)[C@H](Cc2ccccc2)NC(=O)[C@H](Cc2c[nH]c3ccccc23)NC(=O)[C@@H]2CCCN2C(=O)[C@@H](NC(=O)[C@@H](N)Cc2ccccc2)C(C)C)Cc2ccccc2C1)C(=O)N[C@@H](CC(C)C)C(N)=O (H-FVPWFSKF[dL][Aic]RIL-NH2)	3.12 (≈ 5.35 µg/mL)	6.25 (≈ 10.7 µg/mL)	92.84	1.56 (≈ 2.67 µg/mL)	> 50	88.72	45.54	6.25 (≈ 10.7 µg/mL)	1.56 (≈ 2.67 µg/mL)	1.56 (≈ 2.67 µg/mL)	Non-Toxic	> 50	1.56 (≈ 2.67 µg/mL)
CC[C@H](C)[C@H](NC(=O)[C@H](CCCNC(=N)N)NC(=O)[C@H]1CCCN1C(=O)[C@@H](CC(C)C)NC(=O)[C@H](Cc1ccccc1)NC(=O)[C@H](CCCCN)NC(=O)[C@H](CO)NC(=O)[C@H](Cc1ccccc1)NC(=O)[C@H](Cc1c[nH]c2ccccc12)NC(=O)[C@@H]1CCCN1C(=O)[C@@H](NC(=O)[C@@H](N)Cc1ccccc1)C(C)C)C(=O)N[C@@H](CC(C)C)C(N)=O (H-FVPWFSKF[dL][dP]RIL-NH2)	50 (≈ 82.5 µg/mL)	3.12 (≈ 5.15 µg/mL)	0	> 50	50 (≈ 82.5 µg/mL)	0	0	3.12 (≈ 5.15 µg/mL)	25 (≈ 41.2 µg/mL)	50 (≈ 82.5 µg/mL)	Non-Toxic	> 50	3.12 (≈ 5.15 µg/mL)
